The record followed here is patent publication US5656591A, “Antimicrobial agents and method for treating products therewith” (Morinaga Milk Industry Co., Ltd., priority 1992, dated 1997).

What all share (format): cell-based
Assay [1] relates to Staphylococcus aureus (JCM-2151). Nature of the assay: Viability assay (survival rate) in cow's milk medium. Also noted: key to survival rate: % of control colony count 1 (control colony count 2 at peptide 0). The conditions noted are these: for antimicrobial activity of the compound added without antimicrobial peptide or lactoferrin hydrolysate (in words): compound alone; for effect of the coexisting compound on the antimicrobial activity of the lactoferrin hydrolysate (in words): with lactoferrin hydrolysate 1. As for the experimental part:
The colonies grown on the culture medium were scraped by a platinum loop and cultivated in 1% peptone (by Difco Company) culture medium for several hours at 37° C., and the resultant microbial culture at logarithmic phase was used as the preculture in a serial concentration of 3×10^8 /ml.
A quantity of the resultant solutions of the samples were selectively mixed with a quantity of the basal medium, thereby test media for the respective tests were prepared in the combinations and eventual concentrations as specified in the respective tests.
Utilizing the samples (5), (7), (8), (9), (10), (14), (15), (17), (18) and (19), test media were prepared in the same manner as in the preparation of the test media containing sample (3) and the like, except that the aqueous solution (in the cases of samples (5) and (7), aqueous suspensions) were not dealt with sterilization filters.
To 2 ml aliquots of test media prepared in (3-1) (supra), […] aliquots of the preculture of Staphylococcus aureus prepared in (1) (2. Method, supra) were added, then incubated at 37° C. for 1 hour, 200 μl aliquots of the resultant cultures were taken out and diluted with 1% peptone solution in a series of 10^n respectively, 110 μl aliquots of the resultant dilution series were spread onto plates of standard agar culture medium, and after incubation at 37° C. for 24 hours the number of colonies grown on the plates were counted (Test. Colony Count).
Control coloney counts 1 were determined in the same manner as in the determination of the test coloney counts, except that […] aliquots of the preculture of Staphylococcus aureus prepared in (1) (2. Method, supra) were added to 2 ml aliquots of the respective control media 1 prepared in (3-2) (supra). Furthermore, control coloney counts 2 were determined in the same manner as in the determination of the test coloney counts, except that […] aliquots of the preculture of Staphylococcus aureus prepared in (1) (supra) were added to 2 ml aliquots of the respective control media 1 prepared in (3-2) (supra).
Survival rate 1=(Test Colony Count/Control Colony Count 1)×100
Survival rate 2=(Control Colony Count 2/Control Colony Count 1)×100
(Note: In the tables shown hereinafter, vulues of survival rate 2 are indicated in the row where the concentration of antimicrobial peptide or lactoferrin hydrolysate is 0.)

Assay [2] relates to Staphylococcus aureus JCM2151. The assay can be described thus: Test for antimicrobial activity (turbidity): growth inhibiting concentration of antibiotics. The settings on record: for MIC: Staphylococcus aureus. The method, then: (§1) Precultures of test microorganisms to be used in the tests described hereunder were prepared in such a manner that: from the frozen preservation of dispersions of test microorganisms, a loop of the respective strains of the microorganisms were taken out and spread onto TRI PETIT CASE SOYA AGAR MEDIA (by BBL Company), and incubated at 37° C. for 16 hours; the colonies grown on the culture media were scraped by a platinum loop and cultivated in 2.1% Mueller-Hington Broth (by Difco Company) respectively for several hours at 37° C. The resultant microbial cultures at logarithmic phase in 3×10^8 /ml of microbial concentration were used as the precultures.
(§2) The test media to be used in the respective tests were prepared in such a manner that: aqueous solutions in a predetermined concentration of the lactoferrin hydrolysates or the lactoferrin-derived antimicrobial peptides of (1) and (2) in Preparation of Samples (supra), as well as the samples of antibiotics of (3) (supra) were respectively sterilized with filters (by Advantec Company); then a quantity of the resultant solutions of respective samples were selectively added to a quantity of basal medium (Mueller-Hington Broth) prepared in the eventual concentration of 2.1%, thereby combinations of the samples and their concentrations in the respective test media were adjusted as specified in the respective tests.
(§3) Antimicrobial activity was examined as follows: A quantity of the respective precultures prepared in (1) immediately above was diluted with 2.1% Mueller-Hington Broth to result in 2×10^6 /ml of microbial concentration; 100 μl aliquots of the resultant liquid were added to 100 μl aliquots of one of the test media as specified in the respective test; the resultant media were incubated at 37° C. for 16 hours; then the turbidity of the resultant culture broths were measured thereby antimicrobial activity was examined.
(§4) Components in the test and control media and eventual concentrations thereof were adjusted by properly combining 0 mg, 0.4 mg, 1.6 mg and 6.4 mg/ml of lactoferrin hydrolysate of (1) (in Preparation of Samples, supra). or 0 μg, 16 μg, 64 μg, and 256 μg/ml of lactoferrin-derived antimicrobial peptides of (2) (in Preparation of Samples, supra), and 0 μg, 0.01 μg, 0.1 μg, 1 μg, and 10 μg/ml of antibiotics of (3) (supra), then antimicrobial activity of the combined use of the components against Escherichia coli 0-111 and Staphylococcus aureus (JCM2151) as well as growth inhibiting concentrations of the antibiotics were investigated.

A further assay relates to Escherichia coli 0-111. The assay is described as above. As for the experimental part:
as §1, §2, §3, §4

[3] abbreviates: with antimicrobial peptide Seq. ID No. 26.
[4] abbreviates: with antimicrobial peptide Seq. ID No. 27.
[5] abbreviates: lactoferrin hydrolysate 0 mg/ml.
Setting [6] is: lactoferrin hydrolysate 0.4 mg/ml.
Setting [7] is: lactoferrin hydrolysate 1.6 mg/ml.
[8] abbreviates: lactoferrin hydrolysate 6.4 mg/ml.

Bounds are passed on as bounds.

With `OC[C@H]1O[C@@H]2O[C@H]3[C@H](O)[C@@H](O)[C@@H](O[C@H]4[C@H](O)[C@@H](O)[C@@H](O[C@H]5[C@H](O)[C@@H](O)[C@@H](O[C@H]6[C@H](O)[C@@H](O)[C@@H](O[C@H]7[C@H](O)[C@@H](O)[C@@H](O[C@H]8[C@H](O)[C@@H](O)[C@@H](O[C@H]1[C@H](O)[C@H]2O)O[C@@H]8CO)O[C@@H]7CO)O[C@@H]6CO)O[C@@H]5CO)O[C@@H]4CO)O[C@@H]3CO` [β-cyclodextrin, β-Cyclodextrin], the survival rate in assay [1] (Test 4: peptide 0, β-cyclodextrin 0.1 mg/ml) amounted to 100; in assay [1] (Test 4: peptide 0, β-cyclodextrin 1 mg/ml) it was 109; in assay [1] (Test 4: peptide 0, β-cyclodextrin 2.5 mg/ml) it was 88. In assay [1], the “antimicrobial activity of the compound added without antimicrobial peptide or lactoferrin hydrolysate (in words)” value is “no antimicrobial activity was observed”. In assay [1] (setting [3]), the “effect of the coexisting compound on the antimicrobial activity of the antimicrobial peptide (in words)” value (from here on “effect … of the antimicrobial peptide (in words)”) is on record as “augments the antimicrobial activity of the peptide”.
Regarding `N[C@@H](CS)C(=O)O` [L-cysteine, L-Cysteine], the “antimicrobial activity of the compound added without antimicrobial peptide or lactoferrin hydrolysate (in words)” value in assay [1] is “antimicrobial activity was low”. Besides, in assay [1] (setting [4]), the “effect … of the antimicrobial peptide (in words)” value was “augments the antimicrobial activity of the peptide”.
tocopherol: the survival rate in assay [1] (Test 3: peptide 0, tocopherol 0.1 mg/ml) is listed as 101; in assay [1] (Test 3: peptide 0, tocopherol 0.5 mg/ml), 113; in assay [1] (Test 3: peptide 0, tocopherol 1 mg/ml) it was 112. Moreover, in assay [1], the “antimicrobial activity of the compound added without antimicrobial peptide or lactoferrin hydrolysate (in words)” value is “no antimicrobial activity was observed”. The “effect … of the antimicrobial peptide (in words)” value in assay [1] (setting [3]) is reported as “augments the antimicrobial activity of the peptide”.
On to `O=C1O[C@H]([C@@H](O)CO)C(O)=C1O` [ascorbic acid, Ascorbic Acid], for which, in assay [1], the “antimicrobial activity of the compound added without antimicrobial peptide or lactoferrin hydrolysate (in words)” value was “no antimicrobial activity was observed” and the “effect of the coexisting compound on the antimicrobial activity of the lactoferrin hydrolysate (in words)” value is given as “augments the antimicrobial activity of the lactoferrin hydrolysate 1”. Further, the “effect … of the antimicrobial peptide (in words)” value in assay [1] (setting [4]) was “augments the antimicrobial activity of the peptide”.
As for `O=C([O-])CN(CCN(CC(=O)[O-])CC(=O)O)CC(=O)O.[Na+].[Na+]` [EDTA.Na2, EDTA·Na2], the survival rate in assay [1] (Test 9: lactoferrin hydrolysate 0, EDTA.Na2 0.1 mg/ml) was 122; in assay [1] (Test 9: lactoferrin hydrolysate 0, EDTA.Na2 1 mg/ml), 115; in assay [1] (Test 9: lactoferrin hydrolysate 0, EDTA.Na2 5 mg/ml) it was 101. Also, the “antimicrobial activity of the compound added without antimicrobial peptide or lactoferrin hydrolysate (in words)” value in assay [1] is “no antimicrobial activity was observed”. Besides, in assay [1], the “effect of the coexisting compound on the antimicrobial activity of the lactoferrin hydrolysate (in words)” value is “augments the antimicrobial activity of the lactoferrin hydrolysate”.
On to `O=C(O)CC(O)(CC(=O)O)C(=O)O` [citric acid, Citric Acid], for which the “effect of the coexisting compound on the antimicrobial activity of the lactoferrin hydrolysate (in words)” value in assay [1] is given as “augments the antimicrobial activity of the lactoferrin hydrolysate 1”.
Consider `CCCCCCCCCCCCCC(=O)OCC(O)CO` (racemic) [1-monomyristoyl-rac-glycerol, 1-monomyristoyl-rac-Glycerol], for which the “antimicrobial activity of the compound added without antimicrobial peptide or lactoferrin hydrolysate (in words)” value in assay [1] is “the antimicrobial activity is low”. The “effect … of the antimicrobial peptide (in words)” value in assay [1] (setting [3]) is reported as “augmented the antimicrobial activity of the peptide”.
As for `CCO` [ethyl alcohol, Ethyl Alcohol], the “antimicrobial activity of the compound added without antimicrobial peptide or lactoferrin hydrolysate (in words)” value in assay [1] is on record as “no antimicrobial activity was observed”. Moreover, the “effect … of the antimicrobial peptide (in words)” value in assay [1] (setting [3]) is on record as “potentiates the antimicrobial activity of the peptide”.
Take `C[C@H](CCC(=O)O)[C@H]1CC[C@H]2[C@@H]3[C@H](O)C[C@@H]4C[C@H](O)CC[C@]4(C)[C@H]3C[C@H](O)[C@]12C` [cholic acid, Cholic Acid]: the survival rate in assay [1] (Test 22: peptide 0, 1-monolauroyl-rac-glycerol 0, cholic acid 1 mg/ml) stood at 92%. Also, in assay [1], the “antimicrobial activity of the compound added without antimicrobial peptide or lactoferrin hydrolysate (in words)” value is “no antimicrobial activity was observed” and the “effect of the coexisting compound on the antimicrobial activity of the lactoferrin hydrolysate (in words)” value was “augments the antimicrobial activity of the lactoferrin hydrolysate 1”. Further, the “effect … of the antimicrobial peptide (in words)” value in assay [1] (setting [3]) was “further augments the antimicrobiaI activity of the peptide”.
Take `CCCCCCCC(=O)OCC(O)CO` (racemic) [monocapryloyl-glycerol, 1-Monocapryloyl-rac-Glycerol]: the “antimicrobial activity of the compound added without antimicrobial peptide or lactoferrin hydrolysate (in words)” value in assay [1] is reported as “no antimicrobial activity was observed”. In assay [1] (setting [3]), the “effect … of the antimicrobial peptide (in words)” value is listed as “augments the antimicrobial activity of the peptide”.
The like results for `CC(O)CO` (stereo not shown) [propylene glycol, Propylene Glycol] were, in that order, “no antimicrobial activity was observed” and “augmented the antimicrobial activity of the peptide”.
For orientation: MIC means the lowest concentration found to suppress growth. Consider `CC[C@H]1OC(=O)[C@H](C)[C@@H](O[C@H]2C[C@@](C)(OC)[C@@H](O)[C@H](C)O2)[C@H](C)[C@@H](O[C@@H]2O[C@H](C)C[C@H](N(C)C)[C@H]2O)[C@](C)(O)C[C@@H](C)C(=O)[C@H](C)[C@@H](O)[C@]1(C)O` [erythromycin], for which the MIC in assay [2] (JCM2151, antimicrobial peptide (Seq. ID No. 27) 0 μg/ml) was greater than 1 µg/mL; in assay [2] (JCM2151, antimicrobial peptide (Seq. ID No. 27) 16 μg/ml), 1 µg/mL; in assay [2] (JCM2151, antimicrobial peptide (Seq. ID No. 27) 64 μg/ml), 1 µg/mL; in assay [2] (JCM2151, antimicrobial peptide (Seq. ID No. 27) 256 μg/ml), 0.01 µg/mL; in the assay with Escherichia coli 0-111 (Escherichia coli, 0111, antimicrobial peptide (Seq. ID No. 27) 0 μg/ml), greater than 1 µg/mL; in the assay with Escherichia coli 0-111 (Escherichia coli, 0111, antimicrobial peptide (Seq. ID No. 27) 16 μg/ml), 1 µg/mL. In addition, the MIC with Escherichia coli 0-111 (Escherichia coli, 0111, antimicrobial peptide (Seq. ID No. 27) 64 μg/ml) is 1 µg/mL; in the assay on Escherichia coli 0-111 (Escherichia coli, 0111, antimicrobial peptide (Seq. ID No. 27) 256 μg/ml), 0.01 µg/mL. Further, the “Growth inhibiting Concentration of antibiotics” value is greater than 1 µg/mL in assay [2] (setting [5]); 1 µg/mL in assay [2] (setting [6]); 1 µg/mL in assay [2] (setting [7]); 0.01 µg/mL in assay [2] (setting [8]); greater than 1 µg/mL with Escherichia coli 0-111 (setting [5]); 1 µg/mL in the assay with Escherichia coli 0-111 (setting [6]). In addition, the “Growth inhibiting Concentration of antibiotics” value was 1 µg/mL in the assay on Escherichia coli 0-111 (setting [7]) and 0.1 µg/mL in the assay with Escherichia coli 0-111 (setting [8]).
